Laboratory results as given in PubChem BioAssay AID248 (DTP/NCI, 2004).
Several values for one entry are separate records, joined by “and”; a condition that tells them apart may be missing. Equal entries are not always repeated. Inconclusive results and toxic doses are left out.

Test system: L1210 leukemia ip in BDF1 mice, survival T/C
Assay: NCI In Vivo Anticancer Drug Screen. Data for tumor model L1210 Leukemia (intraperitoneal) in B6D2F1 (BDF1) mice
Settings: endpoint: mean survival time, higher = longer survival
How it was run: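 Each compound was tested against a transplantable tumor grown in mice. The endpoint was survival, with treated animals benchmarked against vehicle controls as a simple ratio.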

[1] = dose: 400.0 mg/kg/injection, schedule: Q01DX001 (ip), vehicle: saline
[2] = dose: 100.0 mg/kg/injection, schedule: Q01DX001 (ip), vehicle: saline
[3] = dose: 100.0 mg/kg/injection, schedule: Q01DX009 (ip), vehicle: Klucel (hydroxypropylcellulose) (HPC)
[4] = dose: 100.0 mg/kg/injection, schedule: Q01DX009 (ip), vehicle: saline
[5] = dose: 100.0 mg/kg/injection, schedule: Q04DX003 (ip), vehicle: Klucel (hydroxypropylcellulose) (HPC)
[6] = dose: 200.0 mg/kg/injection, schedule: Q04DX003 (ip), vehicle: Klucel (hydroxypropylcellulose) (HPC)
[7] = dose: 400.0 mg/kg/injection, schedule: Q04DX003 (ip), vehicle: Klucel (hydroxypropylcellulose) (HPC)
[8] = dose: 100.0 mg/kg/injection, schedule: Q01DX001 (ip), vehicle: other
[9] = dose: 200.0 mg/kg/injection, schedule: Q01DX001 (ip), vehicle: other
[10] = dose: 400.0 mg/kg/injection, schedule: Q01DX001 (ip), vehicle: other
[11] = dose: 100.0 mg/kg/injection, schedule: Q01DX009 (ip), vehicle: saline with Tween-80
[12] = dose: 200.0 mg/kg/injection, schedule: Q01DX009 (ip), vehicle: saline with Tween-80
[13] = dose: 400.0 mg/kg/injection, schedule: Q01DX009 (ip), vehicle: saline with Tween-80
[14] = dose: 100.0 mg/kg/injection, schedule: Q04DX003 (ip), vehicle: saline with Tween-80
[15] = dose: 200.0 mg/kg/injection, schedule: Q01DX009 (ip), vehicle: Klucel (hydroxypropylcellulose) (HPC)
[16] = dose: 200.0 mg/kg/injection, schedule: Q04DX003 (ip), vehicle: saline with Tween-80
[17] = dose: 400.0 mg/kg/injection, schedule: Q01DX009 (ip), vehicle: Klucel (hydroxypropylcellulose) (HPC)
[18] = dose: 400.0 mg/kg/injection, schedule: Q04DX003 (ip), vehicle: saline with Tween-80

SMILES: Cc1cccc2c(Nc3ccc(NS(C)(=O)=O)cc3)c3ccc([N+](=O)[O-])cc3nc12
- T/C (dose: 4.8 mg/kg/injection, schedule: Q01DX009 (ip), vehicle: Klucel (hydroxypropylcellulose) (HPC)): 151 % of control
- T/C (dose: 9.5 mg/kg/injection, schedule: Q01DX009 (ip), vehicle: Klucel (hydroxypropylcellulose) (HPC)): 176 % of control
- T/C (dose: 10.0 mg/kg/injection, schedule: Q01DX009 (sc), vehicle: saline): 107 % of control
- T/C (dose: 19.0 mg/kg/injection, schedule: Q01DX009 (ip), vehicle: Klucel (hydroxypropylcellulose) (HPC)): 154 % of control
- T/C (dose: 20.0 mg/kg/injection, schedule: Q01DX009 (sc), vehicle: saline): 121 % of control
- T/C (dose: 40.0 mg/kg/injection, schedule: Q01DX009 (sc), vehicle: saline): 123 % of control
- T/C (dose: 80.0 mg/kg/injection, schedule: Q01DX009 (sc), vehicle: saline): 152 % of control
- T/C (dose: 178.0 mg/kg/injection, schedule: Q01DX001 (ip), vehicle: saline): 102 % of control
- T/C (dose: 267.0 mg/kg/injection, schedule: Q01DX001 (ip), vehicle: saline): 97 % of control
- T/C [1]: 103 % of control

SMILES: O=C(CCCC(=O)N/N=C/c1ccc(Cl)c(Cl)c1)N/N=C\c1ccc(Cl)c(Cl)c1
- T/C (dose: 50.0 mg/kg/injection, schedule: Q01DX001 (ip), vehicle: saline): 116 % of control
- T/C [2]: 110 % of control
- T/C (dose: 200.0 mg/kg/injection, schedule: Q01DX001 (ip), vehicle: saline): 118 % of control
- T/C [1]: 100 % of control

SMILES: CCC/C(=N/NC(=O)C1CCCO1)c1ccccc1 (stereo not drawn)
- T/C (dose: 25.0 mg/kg/injection, schedule: Q01DX009 (ip), vehicle: Klucel (hydroxypropylcellulose) (HPC)): 104 % of control
- T/C (dose: 50.0 mg/kg/injection, schedule: Q01DX009 (ip), vehicle: Klucel (hydroxypropylcellulose) (HPC)): 102 % of control
- T/C [3]: 104 % of control and 88 % of control

SMILES: CCN(CC)CCCC(C)Nc1ncnc2c1C(c1ccccc1)C(C)(C)O2 (stereo not drawn)
- T/C [4]: 106 % of control
- T/C (dose: 200.0 mg/kg/injection, schedule: Q01DX009 (ip), vehicle: saline): 101 % of control
- T/C (dose: 400.0 mg/kg/injection, schedule: Q01DX009 (ip), vehicle: saline): 101 % of control

SMILES: O=Cc1occ(-c2ccccc2)c1-c1ccccc1
- T/C [5]: 94 % of control
- T/C [6]: 97 % of control
- T/C [7]: 98 % of control

SMILES: CN1c2ccc(Br)c[c]2[Sn]([c]2ccccc2)([c]2ccccc2)[c]2cc(Br)ccc21
- T/C [8]: 91 % of control
- T/C [9]: 96 % of control
- T/C [10]: 96 % of control

SMILES: CC(=O)Oc1ccc(/C=C/C(=O)O)cc1OC(C)=O
- T/C (dose: 25.0 mg/kg/injection, schedule: Q04DX002 (ip), vehicle: saline with Tween-80): 101 % of control
- T/C (dose: 50.0 mg/kg/injection, schedule: Q04DX002 (ip), vehicle: saline with Tween-80): 97 % of control
- T/C (dose: 100.0 mg/kg/injection, schedule: Q04DX002 (ip), vehicle: saline with Tween-80): 94 % of control
- T/C (dose: 200.0 mg/kg/injection, schedule: Q04DX002 (ip), vehicle: saline with Tween-80): 87 % of control
- T/C (dose: 400.0 mg/kg/injection, schedule: Q04DX002 (ip), vehicle: saline with Tween-80): 93 % of control

SMILES: O=C(/C=C/c1ccccc1)NC(=S)Nc1nccs1
- T/C (dose: 100.0 mg/kg/injection, schedule: Q01DX009 (ip), vehicle: carboxymethylcellulose (CMC)): 100 % of control and 104 % of control
- T/C (dose: 100.0 mg/kg/injection, schedule: Q04DX002 (ip), vehicle: carboxymethylcellulose (CMC)): 97 % of control and 103 % of control
- T/C (dose: 100.0 mg/kg/injection, schedule: Q04DX003 (ip), vehicle: carboxymethylcellulose (CMC)): 100 % of control
- T/C (dose: 200.0 mg/kg/injection, schedule: Q01DX009 (ip), vehicle: carboxymethylcellulose (CMC)): 100 % of control and 111 % of control
- T/C (dose: 200.0 mg/kg/injection, schedule: Q04DX002 (ip), vehicle: carboxymethylcellulose (CMC)): 99 % of control and 103 % of control
- T/C (dose: 200.0 mg/kg/injection, schedule: Q04DX003 (ip), vehicle: carboxymethylcellulose (CMC)): 96 % of control
- T/C (dose: 400.0 mg/kg/injection, schedule: Q01DX009 (ip), vehicle: carboxymethylcellulose (CMC)): 96 % of control and 102 % of control
- T/C (dose: 400.0 mg/kg/injection, schedule: Q04DX002 (ip), vehicle: carboxymethylcellulose (CMC)): 103 % of control and 87 % of control
- T/C (dose: 400.0 mg/kg/injection, schedule: Q04DX003 (ip), vehicle: carboxymethylcellulose (CMC)): 93 % of control

SMILES: Cc1ccc(CCCC(=O)O)c(C)c1
- T/C [11]: 105 % of control
- T/C [12]: 92 % of control
- T/C [13]: 96 % of control

SMILES: NNc1ccc(C(=O)O)cc1
- T/C [3]: 100 % of control
- T/C [11]: 98 % of control and 101 % of control
- T/C [5]: 102 % of control
- T/C [14]: 100 % of control and 101 % of control
- T/C [15]: 96 % of control
- T/C [12]: 93 % of control and 95 % of control
- T/C [6]: 91 % of control
- T/C [16]: 96 % of control and 108 % of control
- T/C [17]: 100 % of control
- T/C [13]: 117 % of control and 91 % of control
- T/C [7]: 96 % of control
- T/C [18]: 94 % of control and 96 % of control

SMILES: Cc1cc2c(cc1C)C(=O)C(N1CCN(C)CC1)CCC2 (stereo not drawn)
- T/C [14]: 101 % of control

SMILES: CC(=O)NCCc1ccc(NCc2cnc3nc(N)nc(N)c3n2)cc1
- T/C (dose: 20.0 mg/kg/injection, schedule: Q01DX009 (ip), vehicle: Klucel (hydroxypropylcellulose) (HPC)): 98 % of control
- T/C (dose: 40.0 mg/kg/injection, schedule: Q01DX009 (ip), vehicle: Klucel (hydroxypropylcellulose) (HPC)): 96 % of control
- T/C (dose: 80.0 mg/kg/injection, schedule: Q01DX009 (ip), vehicle: Klucel (hydroxypropylcellulose) (HPC)): 98 % of control

SMILES: CCCCC#CC(=O)OC
- T/C (dose: 75.0 mg/kg/injection, schedule: Q01DX001 (ip), vehicle: other): 106 % of control
- T/C (dose: 150.0 mg/kg/injection, schedule: Q01DX001 (ip), vehicle: other): 97 % of control
- T/C (dose: 300.0 mg/kg/injection, schedule: Q01DX001 (ip), vehicle: other): 101 % of control

SMILES: CN(C)C(=S)Nc1ccccc1
- T/C [4]: 114 % of control
- T/C (dose: 130.0 mg/kg/injection, schedule: Q01DX009 (ip), vehicle: Klucel (hydroxypropylcellulose) (HPC)): 98 % of control
- T/C [15]: 103 % of control

SMILES: CC(C)(C)C1CCC2(CC1)CO2 (stereo not drawn)
- T/C [2]: 98 % of control

SMILES: C=NNc1nc2ccccc2s1
- T/C (dose: 100.0 mg/kg/injection, schedule: Q04DX003 (ip), vehicle: gum acacia): 96 % of control
- T/C (dose: 200.0 mg/kg/injection, schedule: Q04DX003 (ip), vehicle: gum acacia): 88 % of control

SMILES: Cc1nnc(NC(=O)C(Cl)Cl)s1
- T/C [8]: 96 % of control
- T/C [3]: 96 % of control
- T/C (dose: 100.0 mg/kg/injection, schedule: Q04DX003 (ip), vehicle: other): 95 % of control
- T/C [9]: 98 % of control
- T/C [15]: 90 % of control
- T/C (dose: 200.0 mg/kg/injection, schedule: Q04DX003 (ip), vehicle: other): 96 % of control
- T/C [10]: 101 % of control
- T/C [17]: 93 % of control
- T/C (dose: 400.0 mg/kg/injection, schedule: Q04DX003 (ip), vehicle: other): 87 % of control

SMILES: O=Cc1ccc(/C=C2\C=Cc3ccccc32)cc1
- T/C [14]: 93 % of control
- T/C [16]: 91 % of control
- T/C [18]: 92 % of control

SMILES: N/C(=N\O)c1cn(C2OC(CO)C(O)C2O)c2ncncc12 (stereo not drawn)
- T/C (dose: 25.0 mg/kg/injection, schedule: Q01DX009 (ip), vehicle: saline): 123 % of control
- T/C (dose: 100.0 mg/kg/injection, schedule: Q01DX005 (ip), vehicle: saline): 120 % of control

SMILES: CSc1cc(-c2ccc(Cl)cc2)s[s+]1
- T/C (dose: 12.5 mg/kg/injection, schedule: Q01DX009 (ip), vehicle: saline with Tween-80): 95 % of control
- T/C (dose: 25.0 mg/kg/injection, schedule: Q01DX009 (ip), vehicle: saline with Tween-80): 90 % of control
- T/C (dose: 25.0 mg/kg/injection, schedule: Q04DX003 (ip), vehicle: saline with Tween-80): 100 % of control
- T/C (dose: 50.0 mg/kg/injection, schedule: Q01DX009 (ip), vehicle: saline with Tween-80): 97 % of control
- T/C (dose: 50.0 mg/kg/injection, schedule: Q04DX003 (ip), vehicle: saline with Tween-80): 103 % of control
- T/C [14]: 98 % of control and 86 % of control
